Test results: ChEMBL document CHEMBL1201862, “PubChem BioAssay data set” (2004)
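Cells were grown in 96-well plates and exposed to each compound for 48 hours at five concentrations; endpoints were interpolated linearly between bracketing concentrations, or set to the highest concentration if not reached. GI50 is the concentration that inhibits growth by half.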 Active and inactive are the calls of the source. No stated cut-off is given here; in the data, active = GI50 up to about 1.1 µM and inactive = higher.

Key:
Test in all cases: DTP human tumour cell line panel, 48 h
[1] = test system: 786-0
[2] = test system: A498
[3] = test system: A549
[4] = test system: ACHN
[5] = test system: CCRF-CEM
[6] = test system: COLO 205
[7] = test system: DLD-1
[8] = test system: DMS-114
[9] = test system: DMS-273
[10] = test system: EKVX
[11] = test system: HCC 2998
[12] = test system: HCT-116
[13] = test system: HL-60
[14] = test system: HOP-18
[15] = test system: HOP-62
[16] = test system: HOP-92
[17] = test system: HT-29
[18] = test system: IGROV-1
[19] = test system: K562
[20] = test system: KM-20L2
[21] = test system: KM12
[22] = test system: LOX IMVI
[23] = test system: LXFL 529
[24] = test system: M14
[25] = test system: MOLT-4
[26] = test system: Malme-3M
[27] = test system: NCI-H226
[28] = test system: NCI-H23
[29] = test system: NCI-H460
[30] = test system: OVCAR-3
[31] = test system: OVCAR-4
[32] = test system: OVCAR-8
[33] = test system: RPMI-8226
[34] = test system: RXF 393
[35] = test system: RXF 631
[36] = test system: SF-295
[37] = test system: SF-539
[38] = test system: SK-MEL-28
[39] = test system: SK-MEL-2
[40] = test system: SK-MEL-5
[41] = test system: SK-OV-3
[42] = test system: SNB-19
[43] = test system: SNB-75
[44] = test system: SNB-78
[45] = test system: SW-620
[46] = test system: TK-10
[47] = test system: U-251
[48] = test system: UACC-257
[49] = test system: UACC-62
[50] = test system: UO-31
[51] = test system: CAKI-1
[52] = test system: HCT-15
[53] = test system: M19-MEL
[54] = test system: NCI-H522
[55] = test system: OVCAR-5
[56] = test system: SF-268
[57] = test system: SN12C
[58] = test system: SR
[59] = test system: XF498

CCOC(=O)[C@@]12C(C)=CC(=O)O[C@]1(C)C1C(=O)NC(=O)C12 (some centres not stated)
GI50 [1]: > 100 µM (inactive)
GI50 [2]: > 100 µM (inactive)
GI50 [3]: > 100 µM (inactive)
GI50 [4]: > 100 µM (inactive)
GI50 [5]: > 100 µM (inactive)
GI50 [6]: > 100 µM (inactive)
GI50 [7]: > 100 µM (inactive)
GI50 [8]: > 100 µM (inactive)
GI50 [9]: > 100 µM (inactive)
GI50 [10]: > 100 µM (inactive)
GI50 [11]: > 100 µM (inactive)
GI50 [12]: > 100 µM (inactive)
GI50 [13]: > 100 µM (inactive)
GI50 [14]: 31.4 µM (inactive)
GI50 [15]: > 100 µM (inactive)
GI50 [16]: 22.1 µM (inactive)
GI50 [17]: > 100 µM (inactive)
GI50 [18]: > 100 µM (inactive)
GI50 [19]: > 100 µM (inactive)
GI50 [20]: > 100 µM (inactive)
GI50 [21]: > 100 µM (inactive)
GI50 [22]: > 100 µM (inactive)
GI50 [23]: > 100 µM (inactive)
GI50 [24]: > 100 µM (inactive)
GI50 [25]: > 100 µM (inactive)
GI50 [26]: > 100 µM (inactive)
GI50 [27]: 7.16 µM (inactive)
GI50 [28]: > 100 µM (inactive)
GI50 [29]: > 100 µM (inactive)
GI50 [30]: 34.4 µM (inactive)
GI50 [31]: > 100 µM (inactive)
GI50 [32]: > 100 µM (inactive)
GI50 [33]: > 100 µM (inactive)
GI50 [34]: > 100 µM (inactive)
GI50 [35]: > 100 µM (inactive)
GI50 [36]: > 100 µM (inactive)
GI50 [37]: > 100 µM (inactive)
GI50 [38]: > 100 µM (inactive)
GI50 [39]: > 100 µM (inactive)
GI50 [40]: > 100 µM (inactive)
GI50 [41]: > 100 µM (inactive)
GI50 [42]: > 100 µM (inactive)
GI50 [43]: 85.1 µM (inactive)
GI50 [44]: > 100 µM (inactive)
GI50 [45]: > 100 µM (inactive)
GI50 [46]: > 100 µM (inactive)
GI50 [47]: > 100 µM (inactive)
GI50 [48]: > 100 µM (inactive)
GI50 [49]: 17.4 µM (inactive)
GI50 [50]: > 100 µM (inactive)

COc1cc2c(oc(=O)c3c4oc([Si](C)(C)C)cc4cc(OC)c23)c2cccc(OCc3ccccc3)c12
GI50 [1]: 19.1 µM (inactive)
GI50 [2]: 31.4 µM (inactive)
GI50 [3]: 44 µM (inactive)
GI50 [4]: 51.4 µM (inactive)
GI50 [51]: 21.4 µM (inactive)
GI50 [5]: 48.3 µM (inactive)
GI50 [6]: 54.2 µM (inactive)
GI50 [7]: 55 µM (inactive)
GI50 [8]: 50.6 µM (inactive)
GI50 [9]: 25.3 µM (inactive)
GI50 [10]: > 66.5 µM (inactive)
GI50 [11]: > 64.3 µM (inactive)
GI50 [12]: 43.2 µM (inactive)
GI50 [52]: > 70.5 µM
GI50 [13]: 43.3 µM (inactive)
GI50 [14]: 28 µM (inactive)
GI50 [15]: 18.8 µM (inactive)
GI50 [16]: 34.8 µM (inactive)
GI50 [17]: 48.9 µM (inactive)
GI50 [18]: 50.5 µM (inactive)
GI50 [19]: 57 µM (inactive)
GI50 [20]: > 66.1 µM (inactive)
GI50 [21]: > 64.3 µM (inactive)
GI50 [22]: 44 µM (inactive)
GI50 [23]: 27.2 µM (inactive)
GI50 [24]: 26.3 µM (inactive)
GI50 [53]: 48.2 µM (inactive)
GI50 [25]: > 71.9 µM (inactive)
GI50 [26]: 32.1 µM (inactive)
GI50 [27]: 42.5 µM (inactive)
GI50 [28]: 16.3 µM (inactive)
GI50 [29]: 53.7 µM (inactive)
GI50 [54]: 36.4 µM (inactive)
GI50 [30]: 34.8 µM (inactive)
GI50 [31]: 33.1 µM (inactive)
GI50 [55]: > 70.3 µM (inactive)
GI50 [32]: 38.5 µM (inactive)
GI50 [33]: 28.4 µM (inactive)
GI50 [34]: > 33.5 µM (inactive)
GI50 [56]: 26.5 µM (inactive)
GI50 [36]: 19 µM (inactive)
GI50 [37]: 20.7 µM (inactive)
GI50 [38]: 38.3 µM (inactive)
GI50 [39]: 33.7 µM (inactive)
GI50 [40]: 38 µM (inactive)
GI50 [41]: 38.3 µM (inactive)
GI50 [57]: > 100 µM (inactive)
GI50 [42]: 23.8 µM (inactive)
GI50 [43]: 19.7 µM (inactive)
GI50 [44]: 17 µM (inactive)
GI50 [58]: 37.7 µM (inactive)
GI50 [45]: 68.9 µM (inactive)
GI50 [46]: 37.2 µM (inactive)
GI50 [48]: 47.6 µM (inactive)
GI50 [49]: 17.4 µM (inactive)
GI50 [50]: > 63.7 µM (inactive)
GI50 [59]: 8.32 µM (inactive)
